Key:
Homo sapiens [1] = organism: Homo sapiens; test: Selectivity index, ratio of inhibition for PI3Kalpha (unknown origin) to inhibition for PI3K p120 gamma (unknown origin) using phosphatidylinositol 4,5-bisphosphate as substrate in presence of ATP incubated for 60 mins by ADP-Glo assay
Homo sapiens [2] = organism: Homo sapiens; test: Selectivity index, ratio of inhibition for PI3Kdelta (unknown origin) to inhibition for PI3K p120 gamma (unknown origin) using phosphatidylinositol 4,5-bisphosphate as substrate in presence of ATP incubated for 60 mins by ADP-Glo assay
[3] = target: T1, Phosphatidylinositol 4,5-bisphosphate 3-kinase catalytic subunit gamma isoform (Homo sapiens, UniProt P48736); test: Inhibition of PI3Kgamma in human THP-1 cells assessed as reduction in Akt phosphorylation at S473 residue incubated for 60 mins measured after 120 mins by alphalisa assay; format: cell-based
[4] = Intrinsic clearance in cryopreserved human hepatocytes assessed as per million cells at 0.5 uM by LC-MS/MS analysis; format: ADME, cell-based, Hepatocyte
[5] = Intrinsic clearance in rat hepatocytes assessed as per million cells; format: ADME, cell-based, Hepatocyte
[6] = target: T1, Phosphatidylinositol 4,5-bisphosphate 3-kinase catalytic subunit gamma isoform; test: Inhibition of PI3K p120gamma (unknown origin) using phosphatidylinositol 4,5-bisphosphate as substrate in presence of ATP incubated for 60 mins by ADP-Glo assay
[7] = Efflux ratio of permeability in human Caco2 cells; format: ADME, cell-based; details: Caco-2
[8] = Clearance in Sprague-Dawley rat at 0.25 mg/kg, iv measured upto 8 hrs by LC/MS/MS analysis; format: ADME, organism-based; details: in vivo
[9] = Apparent permeability in human Caco2 cells; format: ADME, cell-based; details: Caco-2
Cytochrome P450 2D6 = Cytochrome P450 2D6 (Homo sapiens, UniProt P10635); test: Inhibition of CYP2D6 (unknown origin) using diclofenac as substrate measured after 5 to 20 mins in presence of NADPH by LC-MS/MS analysis; format: ADME
Cytochrome P450 3A4 = Cytochrome P450 3A4 (Homo sapiens, UniProt P08684); test: Inhibition of CYP3A4 (unknown origin) using midazolam as substrate measured after 5 to 20 mins in presence of NADPH by LC-MS/MS analysis; format: ADME
Cytochrome P450 2C9 = Cytochrome P450 2C9 (Homo sapiens, UniProt P11712); test: Inhibition of CYP2C9 (unknown origin) using diclofenac as substrate measured after 5 to 20 mins in presence of NADPH by LC-MS/MS analysis; format: ADME
Cytochrome P450 1A2 = target: T2, Cytochrome P450 1A2 (Homo sapiens, UniProt P05177); test: Inhibition of CYP1A2 (unknown origin) using phenacetin as substrate measured after 5 to 20 mins in presence of NADPH by LC-MS/MS analysis; format: ADME
T2 sequence (P05177 whole entry): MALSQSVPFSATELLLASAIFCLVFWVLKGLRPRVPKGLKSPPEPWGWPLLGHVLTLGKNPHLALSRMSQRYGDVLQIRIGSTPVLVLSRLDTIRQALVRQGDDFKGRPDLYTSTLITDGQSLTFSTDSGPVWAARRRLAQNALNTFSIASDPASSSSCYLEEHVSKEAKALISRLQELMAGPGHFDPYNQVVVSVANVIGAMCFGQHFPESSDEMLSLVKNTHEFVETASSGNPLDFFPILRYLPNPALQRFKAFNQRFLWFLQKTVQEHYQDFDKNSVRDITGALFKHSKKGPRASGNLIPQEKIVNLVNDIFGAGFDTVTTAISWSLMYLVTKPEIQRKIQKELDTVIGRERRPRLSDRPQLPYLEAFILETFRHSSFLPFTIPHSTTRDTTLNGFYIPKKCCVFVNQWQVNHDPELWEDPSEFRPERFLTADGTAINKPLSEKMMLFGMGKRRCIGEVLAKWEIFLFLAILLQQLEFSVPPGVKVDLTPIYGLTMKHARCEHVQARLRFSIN

Cytochrome P450 2C19 = Cytochrome P450 2C19 (Homo sapiens, UniProt P33261); test: Inhibition of CYP2C19 (unknown origin) using S-mephenytoin as substrate measured after 5 to 20 mins in presence of NADPH by LC-MS/MS analysis; format: ADME
Sequence of Cytochrome P450 2C19 (P33261 whole entry): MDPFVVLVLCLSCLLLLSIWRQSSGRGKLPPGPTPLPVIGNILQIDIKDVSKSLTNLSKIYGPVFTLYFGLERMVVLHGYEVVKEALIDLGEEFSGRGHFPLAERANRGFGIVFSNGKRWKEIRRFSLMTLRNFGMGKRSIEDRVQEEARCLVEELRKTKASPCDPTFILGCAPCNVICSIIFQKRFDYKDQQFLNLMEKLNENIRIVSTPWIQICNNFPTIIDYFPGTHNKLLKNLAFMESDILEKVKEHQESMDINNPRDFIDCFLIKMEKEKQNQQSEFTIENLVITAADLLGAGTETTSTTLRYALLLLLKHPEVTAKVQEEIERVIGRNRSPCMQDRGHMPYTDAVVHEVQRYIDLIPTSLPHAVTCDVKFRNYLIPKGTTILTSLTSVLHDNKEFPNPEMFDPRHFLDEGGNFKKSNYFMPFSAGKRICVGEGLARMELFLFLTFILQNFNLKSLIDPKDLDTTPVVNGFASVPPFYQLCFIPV

T1 sequence (P48736 whole entry, canonical isoform): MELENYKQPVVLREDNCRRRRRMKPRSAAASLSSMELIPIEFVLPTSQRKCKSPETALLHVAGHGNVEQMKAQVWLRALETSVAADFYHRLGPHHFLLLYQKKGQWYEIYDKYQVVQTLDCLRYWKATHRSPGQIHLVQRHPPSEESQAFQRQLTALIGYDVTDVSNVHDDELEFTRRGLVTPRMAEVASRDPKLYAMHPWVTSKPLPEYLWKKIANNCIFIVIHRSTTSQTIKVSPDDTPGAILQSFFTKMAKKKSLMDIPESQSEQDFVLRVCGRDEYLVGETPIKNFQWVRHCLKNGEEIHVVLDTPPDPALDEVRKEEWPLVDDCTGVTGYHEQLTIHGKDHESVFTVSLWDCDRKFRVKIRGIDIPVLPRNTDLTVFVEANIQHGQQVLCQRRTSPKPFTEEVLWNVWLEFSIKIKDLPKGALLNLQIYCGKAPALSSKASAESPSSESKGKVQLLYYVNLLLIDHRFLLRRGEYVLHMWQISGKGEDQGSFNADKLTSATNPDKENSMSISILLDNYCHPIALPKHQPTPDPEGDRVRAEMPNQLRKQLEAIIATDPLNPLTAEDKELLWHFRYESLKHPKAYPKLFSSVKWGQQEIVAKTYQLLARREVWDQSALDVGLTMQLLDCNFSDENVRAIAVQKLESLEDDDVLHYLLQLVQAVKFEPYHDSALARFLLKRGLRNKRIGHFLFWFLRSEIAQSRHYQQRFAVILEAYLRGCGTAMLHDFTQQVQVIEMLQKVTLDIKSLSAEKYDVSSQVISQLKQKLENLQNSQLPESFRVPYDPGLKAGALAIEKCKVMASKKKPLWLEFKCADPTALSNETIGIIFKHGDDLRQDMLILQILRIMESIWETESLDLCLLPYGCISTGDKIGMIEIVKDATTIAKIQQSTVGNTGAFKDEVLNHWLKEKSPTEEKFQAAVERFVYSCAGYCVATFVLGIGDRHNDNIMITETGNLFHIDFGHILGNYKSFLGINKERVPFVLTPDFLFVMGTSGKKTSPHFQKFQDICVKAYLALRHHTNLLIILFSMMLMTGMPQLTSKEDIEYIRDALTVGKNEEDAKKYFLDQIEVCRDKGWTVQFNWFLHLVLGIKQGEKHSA
Sequence of Cytochrome P450 2D6 (P10635 whole entry): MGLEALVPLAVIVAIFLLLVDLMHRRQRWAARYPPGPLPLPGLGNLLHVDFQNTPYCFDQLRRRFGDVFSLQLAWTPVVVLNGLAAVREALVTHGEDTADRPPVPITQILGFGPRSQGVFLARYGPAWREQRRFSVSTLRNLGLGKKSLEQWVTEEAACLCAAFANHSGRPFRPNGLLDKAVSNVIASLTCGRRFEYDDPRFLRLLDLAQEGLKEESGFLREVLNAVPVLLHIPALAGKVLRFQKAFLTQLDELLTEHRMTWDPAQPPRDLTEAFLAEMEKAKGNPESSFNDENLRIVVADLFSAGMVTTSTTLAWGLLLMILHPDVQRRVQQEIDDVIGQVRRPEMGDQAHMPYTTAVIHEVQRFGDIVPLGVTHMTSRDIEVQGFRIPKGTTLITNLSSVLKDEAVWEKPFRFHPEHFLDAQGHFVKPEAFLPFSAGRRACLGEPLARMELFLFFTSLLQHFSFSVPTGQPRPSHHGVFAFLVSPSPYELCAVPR
Sequence of Cytochrome P450 2C9 (P11712 whole entry): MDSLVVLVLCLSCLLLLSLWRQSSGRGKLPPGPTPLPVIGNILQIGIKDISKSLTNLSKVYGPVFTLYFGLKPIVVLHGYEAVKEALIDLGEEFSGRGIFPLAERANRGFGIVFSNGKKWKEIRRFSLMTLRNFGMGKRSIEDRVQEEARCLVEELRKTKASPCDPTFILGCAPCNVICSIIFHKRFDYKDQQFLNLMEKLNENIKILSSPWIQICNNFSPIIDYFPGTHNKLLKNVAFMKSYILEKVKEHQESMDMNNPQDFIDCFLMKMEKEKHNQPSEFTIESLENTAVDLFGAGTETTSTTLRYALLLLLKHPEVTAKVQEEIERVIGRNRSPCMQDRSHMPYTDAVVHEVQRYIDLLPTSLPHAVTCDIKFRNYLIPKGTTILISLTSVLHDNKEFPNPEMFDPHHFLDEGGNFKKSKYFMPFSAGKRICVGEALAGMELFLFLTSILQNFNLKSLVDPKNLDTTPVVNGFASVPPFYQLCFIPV
Sequence of Cytochrome P450 3A4 (P08684 whole entry): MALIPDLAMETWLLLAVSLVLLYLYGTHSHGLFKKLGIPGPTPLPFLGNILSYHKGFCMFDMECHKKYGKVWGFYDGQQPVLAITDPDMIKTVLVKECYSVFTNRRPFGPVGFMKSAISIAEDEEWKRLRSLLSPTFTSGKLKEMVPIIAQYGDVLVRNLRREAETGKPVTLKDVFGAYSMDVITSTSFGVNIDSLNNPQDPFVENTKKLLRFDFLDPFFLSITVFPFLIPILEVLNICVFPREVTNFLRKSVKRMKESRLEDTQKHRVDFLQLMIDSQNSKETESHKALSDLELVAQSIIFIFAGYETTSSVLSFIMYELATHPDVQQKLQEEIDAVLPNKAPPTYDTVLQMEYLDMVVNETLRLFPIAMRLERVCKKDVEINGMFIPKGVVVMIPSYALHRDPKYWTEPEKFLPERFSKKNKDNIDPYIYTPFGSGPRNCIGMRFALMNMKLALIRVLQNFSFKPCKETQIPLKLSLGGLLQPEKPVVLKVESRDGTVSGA

| Compound | Selectivity ratio (Homo sapiens [1]) | Selectivity ratio (Homo sapiens [2]) | IC50 [3] | CLH [4] | CLH [5] | IC50 [6] | efflux ratio [7] | clearance [8] | Papp [9] | IC50 (Cytochrome P450 2D6) | IC50 (Cytochrome P450 3A4) | IC50 (Cytochrome P450 2C9) | IC50 (Cytochrome P450 1A2) | IC50 (Cytochrome P450 2C19) |
| --- | --- | --- | --- | --- | --- | --- | --- | --- | --- | --- | --- | --- | --- | --- |
| Cc1cc(-c2cnc3[nH]cc(-c4ccc(CC(=O)O)cc4)c3c2)cc2c1C(=O)N([C@@H](C)C1CC1)C2 | 878 | 872 | 0.16 µM | 6.9 µL/min/1e6 cells | 17 µL/min/1e6 cells | 0.0026 µM | – | – | – | – | – | – | – | – |
| Cc1cc(-c2cnc3[nH]cc(-c4ccc(C(=O)O)cc4)c3c2)cc2c1C(=O)N([C@@H](C)C1CC1)C2 | 259 | 136 | 0.14 µM | 24 µL/min/1e6 cells | 54 µL/min/1e6 cells | 0.0025 µM | 46.6 | 11 L/h/kg | 10.7 nm/s | – | – | – | – | – |
| Cc1cc(-c2cnc3[nH]cc(-c4ccc(C(C)(C)C(=O)O)cc4)c3c2)cc2c1C(=O)N([C@@H](C)C1CC1)C2 | 835 | 968 | 0.18 µM | 2.3 µL/min/1e6 cells | 27 µL/min/1e6 cells | 0.0021 µM | – | – | – | – | – | – | – | – |
| Cc1cc(-c2c[nH]c3ncc(-c4cc5c(c(C(F)(F)F)c4)C(=O)N([C@@H](C)C4CC4)C5)cc23)ccc1C(=O)O | 918 | 335 | 0.04 µM | < 1.2 µL/min/1e6 cells | 2 µL/min/1e6 cells | 0.0012 µM | – | – | – | – | – | – | – | – |
| C[C@@H](C1CC1)N1Cc2cc(-c3cnc4[nH]cc(-c5ccc(C6(C(=O)O)CC6)cc5)c4c3)cc(C(F)(F)F)c2C1=O | 742 | 620 | 0.11 µM | 2.6 µL/min/1e6 cells | 18 µL/min/1e6 cells | 0.0036 µM | – | – | – | – | – | – | – | – |
| Cc1cc(-c2c[nH]c3ncc(-c4cc(C)c5c(c4)CN([C@@H](C)C4CC4)C5=O)cc23)ccc1C(=O)O | 433 | 505 | 0.078 µM | 19 µL/min/1e6 cells | 51 µL/min/1e6 cells | 0.0028 µM | – | – | – | – | – | – | – | – |
| Cc1cc(-c2cnc3[nH]cc(-c4ccncc4)c3c2)cc2c1C(=O)N([C@@H](C)C1CC1)C2 | 379 | 290 | 0.22 µM | – | – | 0.0034 µM | – | – | – | 2 µM | 0.3 µM | 0.3 µM | 0.7 µM | < 0.1 µM |
| Cc1cc(-c2c[nH]c3ncc(-c4cc5c(c(C(F)(F)F)c4)C(=O)N([C@@H](C)C4CC4)C5)cc23)cc(C)c1C(=O)O | 257 | 84 | 0.03 µM | 1.8 µL/min/1e6 cells | < 1.2 µL/min/1e6 cells | 0.0028 µM | – | 28 L/h/kg | – | – | – | – | – | – |
| Cc1cc(-c2cnc3[nH]cc(-c4ccc(C5(C(=O)O)CC5)cc4)c3c2)cc2c1C(=O)N([C@@H](C)C1CC1)C2 | 863 | 1400 | 0.15 µM | 1.7 µL/min/1e6 cells | 16 µL/min/1e6 cells | 0.0033 µM | – | 1.8 L/h/kg | – | – | – | – | – | – |
| C[C@@H](C1CC1)N1Cc2cc(-c3cnc4[nH]cc(-c5cnn(C)c5)c4c3)cc(C#N)c2C1=O | 1060 | 244 | 0.17 µM | – | – | 0.0037 µM | – | – | – | – | – | – | – | – |
| CNS(=O)(=O)c1cc(-c2cnc3[nH]cc(-c4cnn(C)c4)c3c2)cc2c1C(=O)N([C@@H](C)C1CC1)C2 | > 4160 | 101 | 0.07 µM | – | – | 0.004 µM | – | – | – | – | – | – | – | – |
| Cc1cc(-c2cnc3[nH]cc(-c4ccc(S(N)(=O)=O)cc4)c3c2)cc2c1C(=O)N([C@@H](C)C1CC1)C2 | 1060 | 463 | 0.4 µM | – | – | 0.005 µM | – | – | – | – | – | – | – | – |
| C[C@@H](C1CC1)N1Cc2cc(-c3cnc4[nH]cc(-c5cnn(C)c5)c4c3)cc(S(=O)(=O)N(C)C)c2C1=O | 254 | 159 | 0.1 µM | – | – | 0.0026 µM | – | – | – | – | – | – | – | – |
| Cc1cc(-c2c[nH]c3ncc(-c4cc(C)c5c(c4)CN([C@@H](C)C4CC4)C5=O)cc23)ccc1CC(=O)O | 539 | 397 | 0.15 µM | 8 µL/min/1e6 cells | 23 µL/min/1e6 cells | 0.0033 µM | – | 1.8 L/h/kg | – | – | – | – | – | – |
| Cc1ccc(-c2c[nH]c3ncc(-c4cc(C)c5c(c4)CN([C@@H](C)C4CC4)C5=O)cc23)cc1C(=O)O | > 1560 | > 1900 | 0.26 µM | – | – | 0.005 µM | – | – | – | – | – | – | – | – |
| Cc1cc(-c2cnc3[nH]cc(-c4ccccc4C(=O)O)c3c2)cc2c1C(=O)N([C@@H](C)C1CC1)C2 | > 59 | > 59 | 15 µM | – | – | 0.18 µM | – | – | – | – | – | – | – | – |
| Cc1cc(-c2cnc3[nH]cc(C4CCNC4)c3c2)cc2c1C(=O)N([C@@H](C)C1CC1)C2 (some centres undefined) | > 36 | > 36 | 3.8 µM | – | – | 0.281 µM | – | – | – | – | – | – | – | – |
| Cc1cc(-c2cnc3[nH]cc(-c4ccc(C(=O)O)c(C5CC5)c4)c3c2)cc2c1C(=O)N([C@@H](C)C1CC1)C2 | 585 | 494 | 0.04 µM | – | – | 0.0016 µM | – | – | – | – | – | – | – | – |
| COc1cc(-c2cnc3[nH]cc(-c4cnn(C)c4)c3c2)cc2c1C(=O)N([C@@H](C)C1CC1)C2 | > 1670 | 365 | 0.17 µM | – | – | 0.0043 µM | – | – | – | – | – | – | – | – |
| CC(=O)Nc1cc(-c2cnc3[nH]cc(-c4cnn(C)c4)c3c2)cc2c1C(=O)N([C@@H](C)C1CC1)C2 | > 1060 | > 2740 | 0.5 µM | – | – | 0.0025 µM | – | – | – | – | – | – | – | – |
| Cc1cc(-c2cnc3[nH]cc(-c4ccncc4)c3c2)cc2c1C(=O)N(CC(F)(F)F)C2 | 42 | 62 | 1.6 µM | – | – | 0.0253 µM | – | – | – | – | – | – | – | – |
| Cc1cc(-c2c[nH]c3ncc(-c4cc(C)c5c(c4)CN([C@@H](C)C4CC4)C5=O)cc23)cc(C)c1C(=O)O | 1520 | 1210 | 0.09 µM | 20 µL/min/1e6 cells | 46 µL/min/1e6 cells | 0.0022 µM | – | 6.9 L/h/kg | – | – | – | – | – | – |
| Cc1cc(-c2cnc3[nH]cc(-c4ccnc(N)c4)c3c2)cc2c1C(=O)N([C@@H](C)C1CC1)C2 | 214 | 640 | 0.4 µM | – | – | 0.0058 µM | – | – | – | – | – | – | – | – |

Reference: ChEMBL document CHEMBL4725475, “Discovery of Potent and Selective 7-Azaindole Isoindolinone-Based PI3Kγ Inhibitors” (ACS Med Chem Lett, 2020)
